Non-standard residues stand in square brackets, D forms with d. Residues, ends and D or L forms follow the SMILES beside them. Gly(NCH2CH2Ph) = O=C(O)CNCCc1ccccc1; NMeF = CN[C@@H](Cc1ccccc1)C(=O)O; 4Pal = N[C@@H](Cc1ccncc1)C(=O)O; Dap(Me2) = CN(C)C[C@H](N)C(=O)O; d4Pal = N[C@H](Cc1ccncc1)C(=O)O; dPhg = N[C@@H](C(=O)O)c1ccccc1; NMeL = CN[C@@H](CC(C)C)C(=O)O; Nphe = O=C(O)CNCc1ccccc1; Dap = NC[C@H](N)C(=O)O; Sar = CNCC(=O)O
target: T1, SP receptor (Rattus norvegicus, UniProt P14600); experiment: 3H-SP binding test, rat submaxillary gland tissue; details: 30 μM test compound; rat submaxillary gland tissue (Examples 1-34); read-out: 3H-SP Binding % Inhibition
T1 construct: from tissue; host or cells: rat submaxillary gland (crude tissue suspension)
T1 sequence (P14600 whole entry): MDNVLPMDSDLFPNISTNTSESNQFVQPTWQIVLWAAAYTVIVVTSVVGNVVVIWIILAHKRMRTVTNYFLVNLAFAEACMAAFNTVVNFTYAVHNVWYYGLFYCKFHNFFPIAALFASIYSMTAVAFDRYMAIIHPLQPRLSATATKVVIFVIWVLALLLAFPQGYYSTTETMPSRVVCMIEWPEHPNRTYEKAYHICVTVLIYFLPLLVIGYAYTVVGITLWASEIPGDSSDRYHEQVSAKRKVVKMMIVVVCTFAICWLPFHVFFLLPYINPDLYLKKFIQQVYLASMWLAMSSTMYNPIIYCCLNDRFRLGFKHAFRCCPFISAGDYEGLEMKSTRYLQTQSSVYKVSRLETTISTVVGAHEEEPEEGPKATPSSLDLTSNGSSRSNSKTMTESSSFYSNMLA
Experimental: Crude rat submaxillary gland or brain tissue is suspended in buffer containing protease inhibitors (and calcium ions and magnesium ions in the case of brain tissue) and incubated under nitrogen atmosphere with ^3 H-SP and test compound. The bound SP is then separated from free SP by filtration and quantitated by liquid scintillation spectroscopy. This test meets the criteria of reversibility, saturability, sensitivity to known SP agonists and antagonists, and specificity for an SP receptor binding assay.
With regard to reversibility, addition of unlabelled SP causes a gradual decrease in bound ^3 H-SP, showing that SP is not irreversibly bound to the receptors in the tissue. With regard to saturability, the amount of bound ^3 H-SP in the preparation increases in direct proportion to the concentration of ^3 H-SP added until a saturation point is reached. […] With regard to sensitivity, known SP agonists and antagonists inhibit ^3 H-SP binding.
The results are expressed either as percent inhibition at a concentration of 30 micromoles per liter (μM) or as an IC50 calculated as the concentration in micromoles per liter.
The ^3 H-SP binding test results were obtained using rat submaxillary gland tissue for Examples 1-34 and rat brain tissue for Examples 35-42.

| SMILES | inhibition at 30 µM [%] |
| --- | --- |
| CSCC[C@H](NC(=O)[C@H](CC(C)C)NC(=O)[C@H](CN)NC(=O)[C@H](Cc1ccccc1)NC(=O)[C@H](Cc1ccccc1)NC(=O)[C@@H]1CCCN1)C(N)=O [Example 13, HPro-Phe-Phe-LDap-Leu-MetNH2] (H-PFF[Dap]LM-NH2) | 15 |
| CSCC[C@H](NC(=O)[C@H](CC(C)C)NC(=O)[C@@H](Cc1ccccc1)NC(=O)CN(CCc1ccccc1)C(=O)[C@@H](Cc1ccccc1)NC(=O)[C@@H]1CCCN1)C(N)=O [Example 32, HPro-DPhe-Pgl-DPhe-Leu-MetNH2] (H-P[dF][Gly(NCH2CH2Ph)][dF]LM-NH2) | 40 |
| CSCC[C@H](NC(=O)[C@H](CC(C)C)N(C)C(=O)CNC(=O)[C@H](Cc1ccccc1)NC(=O)[C@H](Cc1ccccc1)NC(=O)[C@@H]1CCCN1)C(N)=O [Example 5, HPro-Phe-Phe-Gly-MeLeu-MetNH2] (H-PFFG[NMeL]M-NH2) | 75 |
| CSCC[C@H](NC(=O)[C@H](CC(C)C)NC(=O)[C@@H](CCCCN)NC(=O)[C@H](Cc1ccccc1)NC(=O)[C@@H](Cc1c[nH]c2ccccc12)NC(=O)[C@@H]1CCCN1)C(N)=O [Example 33, HPro-DTrp-Phe-DLys-Leu-MetNH2] (H-P[dW]F[dK]LM-NH2) | 15 |
| CSCC[C@H](NC(=O)[C@H](CC(C)C)NC(=O)CN(C)C(=O)[C@H](Cc1ccccc1)N(C)C(=O)[C@H](Cc1ccccc1)NC(=O)[C@@H]1CCCN1)C(N)=O [Example 11, HPro-Phe-MePhe-Sar-Leu-MetNH2] (H-PF[NMeF][Sar]LM-NH2) | 11 |
| CSCC[C@H](NC(=O)[C@H](CN(C)C)NC(=O)CNC(=O)[C@H](Cc1ccccc1)NC(=O)[C@H](Cc1ccccc1)NC(=O)[C@@H]1CCCN1)C(N)=O [Example 16, HPro-Phe-Phe-Gly-Gal-MetNH2] (H-PFFG[Dap(Me2)]M-NH2) | 13 |
| CSCC[C@H](NC(=O)[C@H](CC(C)C)N1CC[C@H](NC(=O)[C@H](Cc2ccccc2)NC(=O)[C@H](Cc2ccccc2)NC(=O)[C@@H]2CCCN2)C1=O)C(N)=O [Example 14, HPro-Phe-Phe-CabLeu-MetNH2] | 10 |
| CSCC[C@H](NC(=O)[C@H](CC(C)C)NC(=O)[C@H](Cc1ccncc1)NC(=O)[C@H](Cc1ccccc1)NC(=O)[C@H](Cc1ccccc1)NC(=O)[C@@H]1CCCN1)C(N)=O [Example 19] (H-PFF[4Pal]LM-NH2) | 42 |
| CSCC[C@H](NC(=O)[C@H](CC(C)C)NC(=O)[C@@H](Cc1ccccc1)NC(=O)CN(Cc1ccccc1)C(=O)[C@@H](Cc1ccccc1)NC(=O)[C@@H]1CCCN1)C(N)=O [Example 30, HPro-DPhe-Bgl-DPhe-Leu-MetNH2] (H-P[dF][Nphe][dF]LM-NH2) | 40 |
| CSCC[C@H](NC(=O)[C@H](CC(C)C)NC(=O)[C@@H](Cc1ccncc1)NC(=O)[C@H](Cc1ccccc1)NC(=O)[C@H](Cc1ccccc1)NC(=O)[C@@H]1CCCN1)C(N)=O [Example 20] (H-PFF[d4Pal]LM-NH2) | 20 |
| CSCC[C@H](NC(=O)[C@H](CC(C)C)NC(=O)CNC(=O)[C@H](Cc1ccccc1)N(C)C(=O)[C@H](Cc1ccccc1)NC(=O)[C@@H]1CCCN1)C(N)=O [Example 2, HPro-Phe-MePhe-Gly-Leu-MetNH2] (H-PF[NMeF]GLM-NH2) | 25 |

same assay, conditions: rat submaxillary gland or brain tissue preparation, tissue not specified

| SMILES | effect on 3H-SP binding (specificity) |
| --- | --- |
| NCC(CC(=O)O)c1ccc(Cl)cc1 (centres unmarked) [baclofen, reference compound] | do not affect |
| COc1cc(CNC(=O)CCCC/C=C/C(C)C)ccc1O [capsaicin, reference compound] | do not affect |

same assay, conditions: read-out: 3H-SP Binding % Inhibition

| SMILES | inhibition at 30 µM [%] |
| --- | --- |
| CSCC[C@H](NC(=O)[C@H](CC(C)C)NC(=O)[C@@H](Cc1ccccc1)NC(=O)[C@H](Cc1ccccc1)NC(=O)[C@H](NC(=O)[C@@H]1CCCN1)c1ccccc1)C(N)=O [Example 28, HPro-DPhg-Phe-DPhe-Leu-MetNH2] (H-P[dPhg]F[dF]LM-NH2) | 33 |

Reference: patent US4472305A, “Hexapeptide amides” (Sterling Drug Inc., priority 1983, dated 1984)
